PubChem BioAssay AID1963875 (Molecular Pharmacology Branch, DTP, NCI, 2024)

Tested on: KRAS-mutant PDC complex spheroid viability
Assay: Anticancer human tumor 186277-243-T-J2-PDC patient-derived colon adenocarcinoma cell line growth inhibition [KRAS2]
Conditions: for viability, T/C: stronger effect = lower value
Outline: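 Combination screen of spheroid viability in tumor-cell co-cultures with endothelial (HUVEC) and mesenchymal stem cell stroma. Each agent was tested in half-log dilutions, topping at clinical Cmax or at 10 microM without a known Cmax.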

[1] = curve of first compound, second compound 0.1 µM
[2] = curve of first compound, second compound 0.316 µM
[3] = curve of first compound, second compound 1 µM
[4] = curve of first compound, second compound 3.16 µM
[5] = second compound 0.1 µM, first compound 0.0316 µM
[6] = second compound 0.1 µM, first compound 0.1 µM
[7] = second compound 0.1 µM, first compound 0.316 µM
[8] = second compound 0.1 µM, first compound 1 µM
[9] = second compound 0.1 µM, first compound 3.16 µM
[10] = second compound 0.1 µM, first compound 10 µM
[11] = second compound 0.316 µM, first compound 0.0316 µM
[12] = second compound 0.316 µM, first compound 0.1 µM
[13] = second compound 0.316 µM, first compound 0.316 µM
[14] = second compound 0.316 µM, first compound 1 µM
[15] = second compound 0.316 µM, first compound 3.16 µM
[16] = second compound 0.316 µM, first compound 10 µM
[17] = second compound 1 µM, first compound 0.0316 µM
[18] = second compound 1 µM, first compound 0.1 µM
[19] = second compound 1 µM, first compound 0.316 µM
[20] = second compound 1 µM, first compound 1 µM
[21] = second compound 1 µM, first compound 3.16 µM
[22] = second compound 1 µM, first compound 10 µM
[23] = second compound 3.16 µM, first compound 0.0316 µM
[24] = second compound 3.16 µM, first compound 0.1 µM
[25] = second compound 3.16 µM, first compound 0.316 µM
[26] = second compound 3.16 µM, first compound 1 µM
[27] = second compound 3.16 µM, first compound 3.16 µM
[28] = second compound 3.16 µM, first compound 10 µM
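Throughout, for viability, T/C: viability read after seven days of compound exposure; 100% = DMSO vehicle-treated spheroids so lower means less viable.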

| SMILES | IC50 [1] [nM] | IC50 [2] [nM] | IC50 [3] [nM] | IC50 [4] [nM] | viability, T/C [5] [%] | viability, T/C [6] [%] | viability, T/C [7] [%] | viability, T/C [8] [%] | viability, T/C [9] [%] | viability, T/C [10] [%] | viability, T/C [11] [%] | viability, T/C [12] [%] | viability, T/C [13] [%] | viability, T/C [14] [%] | viability, T/C [15] [%] | viability, T/C [16] [%] | viability, T/C [17] [%] | viability, T/C [18] [%] | viability, T/C [19] [%] | viability, T/C [20] [%] | also measured |
| --- | --- | --- | --- | --- | --- | --- | --- | --- | --- | --- | --- | --- | --- | --- | --- | --- | --- | --- | --- | --- | --- |
| CC(C)NCC(C(=O)N1CCN(c2ncnc3c2C(C)CC3O)CC1)c1ccc(Cl)cc1 (stereo unspecified) + C=CC(=O)N1CCN(c2nc(OCC3CCCN3C)nc3c2CCN(c2cccc4cccc(C)c24)C3)CC1CC#N | 664 | 505 | 248 | < 31.6 | 113 | 87.8 | 72.7 | 36.5 | 23.6 | 12.3 | 108 | 96.3 | 62.4 | 29.9 | 19.2 | 8.67 | 97.8 | 104 | 36.3 | 18.4 | IC50 (curve of first compound, second compound 0.0316 µM): 691 nM; viability, T/C (second compound 0.0316 µM, first compound 0.0316 µM): 93.5%; viability, T/C (second compound 0.0316 µM, first compound 0.1 µM): 105%; viability, T/C (second compound 0.0316 µM, first compound 0.316 µM): 73.5%; viability, T/C (second compound 0.0316 µM, first compound 1 µM): 37%; viability, T/C (second compound 0.0316 µM, first compound 3.16 µM): 26.5%; viability, T/C (second compound 0.0316 µM, first compound 10 µM): 11.2%; viability, T/C [21]: 9.11%; viability, T/C [22]: 4.64%; viability, T/C [23]: 0.22%; viability, T/C [24]: 0.21%; viability, T/C [25]: 0.16%; viability, T/C [26]: 0.13%; viability, T/C [27]: 0.12%; viability, T/C [28]: 0.21% |
| COc1cc(Nc2ncc3c(n2)-c2ccc(Cl)cc2C(c2c(F)cccc2OC)=NC3)ccc1C(=O)O + COc1cc2nc(C)nc(NC(C)c3cc(N)cc(C(F)(F)F)c3)c2cc1OC1CCOC1 | < 31.6 | < 31.6 | < 31.6 | < 31.6 | 30.3 | 29 | 26.4 | 29.2 | 38.8 | 38.7 | 26.8 | 27.7 | 26.1 | 27.4 | 33.7 | 36.6 | 26.8 | 24.7 | 23.5 | 25.7 | IC50 (curve of first compound, second compound 10 µM): < 31.6 nM; viability, T/C [21]: 31.3%; viability, T/C [22]: 34.2%; viability, T/C [23]: 22.2%; viability, T/C [24]: 22.6%; viability, T/C [25]: 22.1%; viability, T/C [26]: 20.6%; viability, T/C [27]: 24.3%; viability, T/C [28]: 22.4%; viability, T/C (second compound 10 µM, first compound 0.0316 µM): 14.1%; viability, T/C (second compound 10 µM, first compound 0.1 µM): 17.8%; viability, T/C (second compound 10 µM, first compound 0.316 µM): 10.2%; viability, T/C (second compound 10 µM, first compound 1 µM): 7.56%; viability, T/C (second compound 10 µM, first compound 3.16 µM): 14%; viability, T/C (second compound 10 µM, first compound 10 µM): 7.41% |
| CNCc1ccccc1-c1csc(C(C)Nc2nc(C)nc3cc(OC)c(OC)cc23)c1 (stereo unspecified) | – | – | – | – | – | – | – | – | – | – | – | – | – | – | – | – | – | – | – | – | viability, T/C (compound 0.1 µM): 100% [middle of 17 runs]; viability, T/C (compound 0.316 µM): 98.9% [middle of 17 runs]; viability, T/C (compound 10 µM): 0.16% [middle of 12 runs]; IC50 (compound alone, run of 07/12/2021): 5.56 µM [middle of 6 runs]; IC50 (compound alone, run of 07/19/2021): 2.27 µM [middle of 5 runs]; IC50 (compound alone, run of 07/26/2021): 5.05 µM [middle of 6 runs] |
